Each structure is given as a SMILES string.

This assay deals with T1, hNPRA (Homo sapiens, UniProt P16066).
T1 construct: expressed in transfected cells
T1 sequence (P16066 33-1061): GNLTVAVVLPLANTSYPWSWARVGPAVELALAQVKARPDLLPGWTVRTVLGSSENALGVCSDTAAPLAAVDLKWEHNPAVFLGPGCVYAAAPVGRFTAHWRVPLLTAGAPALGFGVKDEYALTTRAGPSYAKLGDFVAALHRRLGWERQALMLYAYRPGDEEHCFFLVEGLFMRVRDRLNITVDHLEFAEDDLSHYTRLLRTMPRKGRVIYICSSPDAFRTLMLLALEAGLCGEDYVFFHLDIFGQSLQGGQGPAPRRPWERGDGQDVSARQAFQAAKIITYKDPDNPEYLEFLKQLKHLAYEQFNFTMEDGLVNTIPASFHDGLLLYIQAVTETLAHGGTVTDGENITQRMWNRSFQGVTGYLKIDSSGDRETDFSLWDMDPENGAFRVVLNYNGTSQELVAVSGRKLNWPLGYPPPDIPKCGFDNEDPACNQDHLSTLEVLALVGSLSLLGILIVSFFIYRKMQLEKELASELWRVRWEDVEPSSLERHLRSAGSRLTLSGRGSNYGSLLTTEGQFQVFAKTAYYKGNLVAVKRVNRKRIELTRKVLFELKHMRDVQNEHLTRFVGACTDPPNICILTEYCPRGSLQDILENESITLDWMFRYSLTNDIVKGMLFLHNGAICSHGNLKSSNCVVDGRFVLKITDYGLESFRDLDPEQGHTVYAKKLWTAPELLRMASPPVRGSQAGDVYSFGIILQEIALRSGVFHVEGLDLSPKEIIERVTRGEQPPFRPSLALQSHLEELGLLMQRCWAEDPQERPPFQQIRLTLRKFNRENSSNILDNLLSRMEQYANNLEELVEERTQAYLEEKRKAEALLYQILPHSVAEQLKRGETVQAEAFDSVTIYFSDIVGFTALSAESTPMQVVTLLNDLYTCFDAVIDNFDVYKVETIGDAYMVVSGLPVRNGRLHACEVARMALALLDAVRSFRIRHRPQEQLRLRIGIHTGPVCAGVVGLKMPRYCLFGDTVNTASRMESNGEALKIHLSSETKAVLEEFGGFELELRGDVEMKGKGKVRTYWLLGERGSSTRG
Briefly: NPRA Functional Cell Assay (cGMP HTRF, NPRA HEK JumpIn stable cells). Type of assay: cell-based. To be noted: cGMP production, 1 hour at 37° C., 10-point dose response. The essentials:
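cGMP HTRF read-out after 1 hour compound treatment at 37° C. of human NPRA-expressing HEK JumpIn cells, 1500 cells/well, in buffer with phosphodiesterase inhibitors IBMX and RO20 (100 uM each). Signal converted to [cGMP] by calibration curve; EC50s fitted by 4-parameter logistic; 50 nM h-ANP as positive response.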
On the technique in general: In TR-FRET formats the signal depends on donor and acceptor labels being close together.
For the compound `CC(C)(C)[C@H]1CCc2nc3sc(C(=O)N[C@H](CCN4CCC(O)CC4)c4cccc(C(=O)NCCO)c4)nc3cc2C1` (racemic) [Example 151, rac-(7S)-7-tert-butyl-N-[rac-(1R)-1-[3-(2-hydroxyethylcarbamoyl)phenyl]-3-(4-hydroxy-1-piperidyl)propyl]-5,6,7,8-tetrahydrothiazolo[5,4-b]quinoline-2-carboxamide], the EC50 (in general, the concentration at which the effect is half-maximal) was found to be 682 nM.
As for `CC(C)(C)[C@H]1CCc2nc3sc(C(=O)N[C@H](CCN4CCC(O)CC4)c4cccc(C(=O)NCC5CCNC5)c4)nc3cc2C1` (mixture of isomers) [Example 152, rac-(7S)-7-tert-butyl-N-[rac-(1R)-3-(4-hydroxy-1-piperidyl)-1-[3-(pyrrolidin-3-ylmethylcarbamoyl)phenyl]propyl]-5,6,7,8-tetrahydrothiazolo[5,4-b]quinoline-2-carboxamide], the figure is 686 nM; as for `CC(C)(C)[C@H]1CCc2nc3sc(C(=O)N[C@H](CCN4CCC(O)CC4)c4cccc(C(=O)N5CC(O)(C(F)(F)F)C5)c4)nc3cc2C1` (racemic) [Example 153, rac-(7S)-7-tert-butyl-N-[rac-(1R)-3-(4-hydroxy-1-piperidyl)-1-[3-[3-hydroxy-3-(trifluoromethyl)azetidine-1-carbonyl]phenyl]propyl]-5,6,7,8-tetrahydrothiazolo[5,4-b]quinoline-2-carboxamide], 716 nM; as for `CC(C)(C)[C@H]1CCc2nc3sc(C(=O)N[C@H](CCN4CCC(O)CC4)c4cccc(C(=O)NC5CCNC5=O)c4)nc3cc2C1` (mixture of isomers) [Example 154, rac-(7S)-7-tert-butyl-N-[rac-(1R)-3-(4-hydroxy-1-piperidyl)-1-[3-[(2-oxopyrrolidin-3-yl)carbamoyl]phenyl]propyl]-5,6,7,8-tetrahydrothiazolo[5,4-b]quinoline-2-carboxamide], 721 nM.
Consider `CC(C)(C)[C@H]1CCc2nc3sc(C(=O)N[C@H](CCN4CCC(O)CC4)c4cccc(C(=O)NC5CNC(=O)C5)c4)nc3cc2C1` (mixture of isomers) [Example 155, rac-(7S)-7-tert-butyl-N-[rac-(1R)-3-(4-hydroxy-1-piperidyl)-1-[3-[(5-oxopyrrolidin-3-yl)carbamoyl]phenyl]propyl]-5,6,7,8-tetrahydrothiazolo[5,4-b]quinoline-2-carboxamide], for which the EC50 was 766 nM.
The compound `CC(C)(C)[C@H]1CCc2nc3sc(C(=O)N[C@H](CCN4CCC(O)CC4)c4cccc(C(=O)N5CC(O)C5)c4)nc3cc2C1` (racemic) [Example 156, rac-(7S)-7-tert-butyl-N-[rac-(1R)-1-[3-(3-hydroxyazetidine-1-carbonyl)phenyl]-3-(4-hydroxy-1-piperidyl)propyl]-5,6,7,8-tetrahydrothiazolo[5,4-b]quinoline-2-carboxamide] showed a concentration giving a half-maximal response (EC50) of 830 nM.
`CC(C)(C)[C@H]1CCc2nc3sc(C(=O)N[C@H](CCN4CCC(O)CC4)c4cccc(C(=O)N5CC(N6CCOCC6)C5)c4)nc3cc2C1` (racemic) [Example 157, rac-(7S)-7-tert-butyl-N-[rac-(1R)-3-(4-hydroxy-1-piperidyl)-1-[3-(3-morpholinoazetidine-1-carbonyl)phenyl]propyl]-5,6,7,8-tetrahydrothiazolo[5,4-b]quinoline-2-carboxamide] came in with a 50% effective concentration (EC50) of 876 nM.
Compound `CN1CC(NC(=O)c2cccc([C@@H](CCN3CCC(O)CC3)NC(=O)c3nc4cc5c(nc4s3)CC[C@H](C(C)(C)C)C5)c2)CCC1=O` (mixture of isomers) [Example 158, rac-(7S)-7-tert-butyl-N-[rac-(1R)-3-(4-hydroxy-1-piperidyl)-1-[3-[(1-methyl-6-oxo-3-piperidyl)carbamoyl]phenyl]propyl]-5,6,7,8-tetrahydrothiazolo[5,4-b]quinoline-2-carboxamide] had a concentration giving a half-maximal response (EC50) of 890 nM.
As for `CN1CC(CNC(=O)c2cccc([C@@H](CCN3CCC(O)CC3)NC(=O)c3nc4cc5c(nc4s3)CC[C@H](C(C)(C)C)C5)c2)CC1=O` (mixture of isomers) [Example 159, rac-(7S)-7-tert-butyl-N-[rac-(1R)-3-(4-hydroxy-1-piperidyl)-1-[3-[(1-methyl-5-oxo-pyrrolidin-3-yl)methylcarbamoyl]phenyl]propyl]-5,6,7,8-tetrahydrothiazolo[5,4-b]quinoline-2-carboxamide], the figure is 901 nM.
Under `COC(=O)C1CN(C(=O)c2cccc([C@@H](CCN3CCC(O)CC3)NC(=O)c3nc4cc5c(nc4s3)CC[C@H](C(C)(C)C)C5)c2)CCO1` (mixture of isomers) [Example 160, methyl 4-[3-[rac-(1R)-3-(4-hydroxy-1-piperidyl)-1-[[rac-(7S)-7-tert-butyl-5,6,7,8-tetrahydrothiazolo[5,4-b]quinoline-2-carbonyl]amino]propyl]benzoyl]morpholine-2-carboxylate] stands 1210 nM.
As for `CC(C)(C)[C@H]1CCc2nc3sc(C(=O)N[C@H](CCN4CCC(O)CC4)c4cccc(C(=O)N5CCO[C@H]6CNC[C@H]65)c4)nc3cc2C1` (racemic) [Example 161, rac-(7S)-7-tert-butyl-N-[rac-(1R)-3-(4-hydroxy-1-piperidyl)-1-[3-[rac-(4aR,7aS)-3,4a,5,6,7,7a-hexahydro-2H-pyrrolo[3,4-b][1,4]oxazine-4-carbonyl]phenyl]propyl]-5,6,7,8-tetrahydrothiazolo[5,4-b]quinoline-2-carboxamide], the figure is 1950 nM.
Compound `CC(C)(C)[C@H]1CCc2nc3sc(C(=O)N[C@H](CCN4CCC(O)CC4)c4ccc(-c5ccnnc5)cc4)nc3cc2C1` (racemic) [Example 162, rac-(7S)-7-tert-butyl-N-[rac-(1R)-3-(4-hydroxy-1-piperidyl)-1-(4-pyridazin-4-ylphenyl)propyl]-5,6,7,8-tetrahydrothiazolo[5,4-b]quinoline-2-carboxamide] showed an EC50 of 198 nM.
In the case of `CC(C)(C)[C@H]1CCc2nc3sc(C(=O)N[C@H](CCN4CCC(O)CC4)c4ccc(-c5cc[n+]([O-])nc5)cc4)nc3cc2C1` (racemic) [Example 163, rac-(7S)-7-tert-butyl-N-[rac-(1R)-3-(4-hydroxypiperidin-1-ium-1-yl)-1-[4-(1-oxidopyridazin-1-ium-4-yl)phenyl]propyl]-5,6,7,8-tetrahydrothiazolo[5,4-b]quinoline-2-carboxamide; 2,2,2-trifluoroacetate], the EC50 turned out to be 357 nM.
Under `CC(C)(C)[C@H]1CCc2nc3sc(C(=O)N[C@H](CCN4CCC(O)CC4)c4ccc(-c5ccc(=O)[nH]c5)cc4)nc3cc2C1` (racemic) [Example 164, rac-(7S)-7-tert-butyl-N-[rac-(1R)-3-(4-hydroxypiperidin-1-ium-1-yl)-1-[4-(6-hydroxy-3-pyridyl)phenyl]propyl]-5,6,7,8-tetrahydrothiazolo[5,4-b]quinoline-2-carboxamide; 2,2,2-trifluoroacetate] stands 590 nM.
`CC(C)(C)[C@H]1CCc2nc3sc(C(=O)N[C@H](CCN4CCC(O)CC4)c4ccc(-c5ccc(O)nn5)cc4)nc3cc2C1` (racemic) [Example 165, rac-(7S)-7-tert-butyl-N-[rac-(1R)-3-(4-hydroxypiperidin-1-ium-1-yl)-1-[4-(6-hydroxypyridazin-3-yl)phenyl]propyl]-5,6,7,8-tetrahydrothiazolo[5,4-b]quinoline-2-carboxamide; 2,2,2-trifluoroacetate] registered an EC50 of 611 nM.
For the compound `CC(C)(C)[C@H]1CCc2nc3sc(C(=O)N[C@H](CCN4CCC(O)CC4)c4ccc(-c5c[nH]nc5C#N)cc4)nc3cc2C1` (racemic) [Example 166, rac-(7S)-7-tert-butyl-N-[rac-(1R)-1-[4-(3-cyano-1H-pyrazol-4-yl)phenyl]-3-(4-hydroxypiperidin-1-ium-1-yl)propyl]-5,6,7,8-tetrahydrothiazolo[5,4-b]quinoline-2-carboxamide; 2,2,2-trifluoroacetate], the EC50 was 614 nM.
With `CC(C)(C)[C@H]1CCc2nc3sc(C(=O)N[C@H](CCN4CCC(O)CC4)c4ccc(-c5c[nH]nc5C(F)(F)F)cc4)nc3cc2C1` (racemic) [Example 167, rac-(7S)-7-tert-butyl-N-[rac-(1R)-3-(4-hydroxypiperidin-1-ium-1-yl)-1-[4-[3-(trifluoromethyl)-1H-pyrazol-4-yl]phenyl]propyl]-5,6,7,8-tetrahydrothiazolo[5,4-b]quinoline-2-carboxamide; 2,2,2-trifluoroacetate], a half-maximal effect (EC50) was put at 666 nM.

The values above are taken from patent publication US12440496B2, “Natriuretic peptide receptor a agonists useful for the treatment of cardiometabolic diseases, kidney disease and diabetes” (Merck Sharp & Dohme LLC, priority 2019, dated 2025).
